Reference: patent US8710043B2, “TRPM8 antagonists and their use in treatments” (Amgen Inc., priority 2011, dated 2014)
Structures can show the parent of a compound that is named as a salt.

biological target: T1, human TRPM8 (Homo sapiens, UniProt Q7Z2W7); experiment: Luminescence readout assay for measuring intracellular calcium, icilin activation; assay type: cell-based; settings: CHO cells expressing human TRPM8, aequorin luminescence, 1 μM icilin activation; read-out: hTRPM8 IC50
T1 construct: expressed in transfected cells; host or cells: Chinese hamster ovary (CHO) cells, T-REx tetracycline-inducible system, co-transfected with aequorin
T1 sequence (Q7Z2W7 whole entry): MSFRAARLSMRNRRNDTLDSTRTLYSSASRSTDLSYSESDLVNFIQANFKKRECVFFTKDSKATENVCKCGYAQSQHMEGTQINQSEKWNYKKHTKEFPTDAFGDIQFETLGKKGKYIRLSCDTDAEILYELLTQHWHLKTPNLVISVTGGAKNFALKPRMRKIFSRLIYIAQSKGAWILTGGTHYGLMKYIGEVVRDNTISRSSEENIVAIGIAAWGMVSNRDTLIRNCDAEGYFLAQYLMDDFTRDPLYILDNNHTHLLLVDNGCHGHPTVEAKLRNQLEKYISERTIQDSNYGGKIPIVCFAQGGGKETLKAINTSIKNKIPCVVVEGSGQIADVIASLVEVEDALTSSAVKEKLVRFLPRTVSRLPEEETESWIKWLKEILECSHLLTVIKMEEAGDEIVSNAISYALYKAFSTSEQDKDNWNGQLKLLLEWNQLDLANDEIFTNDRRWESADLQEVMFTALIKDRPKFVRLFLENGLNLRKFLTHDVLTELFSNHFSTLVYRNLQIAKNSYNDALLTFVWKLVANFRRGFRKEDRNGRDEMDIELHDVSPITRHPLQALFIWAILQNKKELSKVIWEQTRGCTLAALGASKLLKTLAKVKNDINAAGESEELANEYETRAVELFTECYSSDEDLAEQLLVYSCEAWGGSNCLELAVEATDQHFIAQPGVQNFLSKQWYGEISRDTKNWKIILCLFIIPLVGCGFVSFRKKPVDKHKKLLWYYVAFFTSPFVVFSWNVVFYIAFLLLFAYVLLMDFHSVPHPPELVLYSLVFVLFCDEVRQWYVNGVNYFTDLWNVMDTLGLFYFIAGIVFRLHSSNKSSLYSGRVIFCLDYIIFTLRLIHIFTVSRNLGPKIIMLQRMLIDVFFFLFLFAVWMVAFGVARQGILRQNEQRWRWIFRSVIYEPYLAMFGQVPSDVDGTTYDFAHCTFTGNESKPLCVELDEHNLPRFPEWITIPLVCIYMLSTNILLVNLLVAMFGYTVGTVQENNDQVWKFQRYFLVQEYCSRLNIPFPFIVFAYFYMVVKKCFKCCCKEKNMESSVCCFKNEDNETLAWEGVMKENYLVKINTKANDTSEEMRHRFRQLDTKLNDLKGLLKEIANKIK
Method in brief: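 The read-out was luminescence reporting intracellular calcium, recorded by a CCD-based luminometer. Compounds were preincubated for 2.5 min before agonist challenge with 1 μM icilin. Human TRPM8 was expressed in a stable T-REx CHO line, induced with 0.5 μg/mL tetracycline the day before.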

Question: For `O=C(N[C@@H](c1ccc(OC(F)(F)F)c(F)c1)c1ncccc1F)c1ccc(=O)n(C[C@H](O)C(F)(F)F)c1` [Example 408, N-((S)-(3-fluoro-4-(trifluoromethoxy)phenyl)(3-fluoropyridin-2-yl)methyl)-6-oxo-1-((S)-3,3,3-trifluoro-2-hydroxypropyl)-1,6-dihydropyridine-3-carboxamide], which IC50 is on record?
Answer: Its IC50 is 78.1 nM.

Question: `Cn1ccc(C(=O)N[C@@H](c2ccc(C(F)(F)F)cc2)c2ncccc2C(F)(F)F)n1` [Example 192, (S)-1-methyl-N-((4-(trifluoromethyl)phenyl)(3-(trifluoromethyl)pyridin-2-yl)methyl)-1H-pyrazole-3-carboxamide] was tested. Which IC50 did it give?
Answer: The IC50 was 79 nM.

Question: `O=C(N[C@@H](c1ccc(F)cc1)c1ncccc1F)c1ccc(=O)[nH]c1` [Example 340, (S)-N-((4-fluorophenyl)(3-fluoropyridin-2-yl)methyl)-6-oxo-1,6-dihydropyridine-3-carboxamide] was tested. Which IC50 did it give?
Answer: Its IC50 is 808 nM.

Question: `O=C(N[C@@H](c1ccc(C(F)(F)F)cc1)c1ncccc1C(F)(F)F)c1ccncc1` [Example 178, (S)-N-((4-(trifluoromethyl)phenyl)(3-(trifluoromethyl)pyridin-2-yl)methyl)isonicotinamide] was tested. Which IC50 did it give?
Answer: The IC50 was 26.2 nM.

Question: How did the IC50 turn out when `O=C(N[C@@H](c1ccc(C(F)(F)F)cc1)c1ncccc1F)c1ccc(=O)n(CC(F)(F)F)c1` [Example 372, (S)-N-((3-fluoropyridin-2-yl)(4-(trifluoromethyl)phenyl)methyl)-6-oxo-1-(2,2,2-trifluoroethyl)-1,6-dihydropyridine-3-carboxamide] was run?
Answer: The IC50 was 89.4 nM.

Question: How did the IC50 turn out when `CS(=O)(=O)Nc1ccc(C(=O)N[C@@H](c2ccc(C(F)(F)F)cc2)c2ncccc2F)cc1` [Example 213, (S)-N-((3-fluoropyridin-2-yl)(4-(trifluoromethyl)phenyl)methyl)-4-(methylsulfonamido)benzamide] was run?
Answer: The IC50 was 43 nM.

Question: `CC(=O)Oc1ccc(C(=O)N[C@@H](c2ccc(C(F)(F)F)cc2)c2ncccc2C(F)(F)F)cc1` [Example 174, (S)-4-(((4-(trifluoromethyl)phenyl)(3-trifluoromethyl)methyl)carbamoyl)phenyl acetate] was tested. Which IC50 did it give?
Answer: Its IC50 is 22.9 nM.

Question: How did the IC50 turn out when `N#Cc1cccc(C(=O)N[C@@H](c2ccc(C(F)(F)F)cc2)c2ncccc2F)c1` [Example 184, (S)-3-cyano-N-((3-fluoropyridin-2-yl)(4-(trifluoromethyl)phenyl)methyl)benzamide] was run?
Answer: The IC50 was 52.9 nM.

Question: How did the IC50 turn out when `COc1cncc(C(=O)N[C@@H](c2ccc(C(F)(F)F)cc2)c2ncccc2C(F)(F)F)c1` [Example 38, (S)-5-methoxy-N-((4-(trifluoromethyl)phenyl)(3-(trifluoromethyl)pyridin-2-yl)methyl)nicotinamide] was run?
Answer: Its IC50 is 77.7 nM.

Question: For `O=C(O)c1cccc(C(=O)N[C@@H](c2ccc(C(F)(F)F)cc2)c2ncccc2C(F)(F)F)c1` [Example 179, (S)-3-(((4-(trifluoromethyl)phenyl)(3-(trifluoromethyl)pyridin-2-yl)methyl)carbamoyl)benzoic acid], which IC50 is on record?
Answer: Its IC50 is 39.8 nM.

Question: How did the IC50 turn out when `O=C1Cc2ccc(C(=O)N[C@@H](c3ccc(C(F)(F)F)cc3)c3ncccc3F)cc2N1` [Example 71, (S)-N-((3-fluoropyridin-2-yl)(4-(trifluoromethyl)phenyl)methyl)-2-oxoindoline-6-carboxamide] was run?
Answer: The IC50 was 9.2 nM.

Question: With `O=C(N[C@@H](c1ccc(C(F)(F)F)cc1)c1ncccc1C(F)(F)F)c1ccc(C(=O)O)c(Br)c1` [Example 100, (S)-2-bromo-4-(((4-(trifluoromethyl)phenyl)(3-(trifluoromethyl)pyridin-2-yl)methyl)carbamoyl)benzoic acid] as the molecule, how does the IC50 read?
Answer: The IC50 was 61.5 nM.

Question: With `O=C(CCc1c[nH]cn1)N[C@@H](c1ccc(C(F)(F)F)cc1)c1ncccc1C(F)(F)F` [Example 155, (S)-3-(1H-imidazol-4-yl)-N-((4-(trifluoromethyl)phenyl)(3-(trifluoromethyl)pyridin-2-yl)methyl)propanamide 2,2,2-trifluoroacetate] as the molecule, how does the IC50 read?
Answer: Its IC50 is 1440 nM.

Question: How did the IC50 turn out when `O=C(NC(c1cccc(F)c1)c1ccc(OC(F)(F)F)c(F)c1)c1ccc(=O)[nH]c1` (stereo not shown) [Example 417, N-((3-fluoro-4-(trifluoromethoxy)phenyl)(3-fluorophenyl)methyl)-6-oxo-1,6-dihydropyridine-3-carboxamide] was run?
Answer: Its IC50 is 83 nM.

Question: How did the IC50 turn out when `O=C(NC(c1ccc(OC(F)(F)F)c(F)c1)c1ccc(F)cc1F)c1ccc(=O)[nH]c1` (stereo not shown) [Example 413, N-((2,4-difluorophenyl)(3-fluoro-4-(trifluoromethoxy)phenyl)methyl)-6-oxo-l,6-dihydropyridine-3-carboxamide] was run?
Answer: Its IC50 is 197 nM.

Question: How did the IC50 turn out when `Cn1cc(C(=O)N[C@@H](c2ccc(OC(F)(F)F)cc2)c2ncccc2F)ccc1=O` [Example 252, (S)-N-((3-fluoropyridin-2-yl)(4-(trifluoromethoxy)phenyl)methyl)-1-methyl-6-oxo-1,6-dihydropyridine-3-carboxamide 2,2,2-trifluoroacetate] was run?
Answer: The IC50 was 24.7 nM.

Question: Which IC50 does the source give for `Cc1nc2cc(C(=O)N[C@@H](c3ccc(C(F)(F)F)cc3)c3ncccc3F)ccc2[nH]1` [Example 397, (S)-N-((3-fluoropyridin-2-yl)(4-(trifluoromethyl)phenyl)methyl)-2-methyl-1H-benzo[d]imidazole-5-carboxamide] here?
Answer: The IC50 was 10.3 nM.

Question: `O=C(N[C@@H](c1ccc(C(F)(F)F)cc1)c1ncccc1C(F)(F)F)c1cncc(O)c1` [Example 58, (S)-5-hydroxy-N-((4-(trifluoromethyl)phenyl)(3-(trifluoromethyl)pyridin-2-yl)methyl)nicotinamide] was tested. Which IC50 did it give?
Answer: The IC50 was 63.9 nM.

Question: Which IC50 does the source give for `O=C(O)c1cccc(C(=O)N[C@@H](c2ccc(OC(F)(F)F)c(F)c2)c2ncccc2F)n1` [Example 415, (S)-6-(((3-fluoro-4-(trifluoromethoxy)phenyl)(3-fluoropyridin-2-yl)methyl)carbamoyl)picolinic acid trifluoroacetate] here?
Answer: The IC50 was 648 nM.

Question: Which IC50 does the source give for `Nc1cccnc1C(=O)N[C@@H](c1ccc(C(F)(F)F)cc1)c1ncccc1C(F)(F)F` [Example 144, (S)-3-amino-N-((4-(trifluoromethyl)phenyl)(3-(trifluoromethyl)pyridin-2-yl)methyl)picolinamide] here?
Answer: Its IC50 is 200 nM.

Question: `COc1ncc(C(=O)N[C@@H](c2ccc(C(F)(F)F)cc2)c2ncccc2C(F)(F)F)cn1` [Example 42, (S)-2-methoxy-N-((4-(trifluoromethyl)phenyl)(3-(trifluoromethyl)pyridin-2-yl)methyl)pyrimidine-5-carboxamide] was tested. Which IC50 did it give?
Answer: The IC50 was 53.9 nM.

Question: For `O=C(N[C@@H](c1ccc(C(F)(F)F)cc1)c1ncccc1C(F)(F)F)C1CCC(O)CC1` (stereo partly drawn) [Example 242, (S)-4-hydroxy-N-((4-(trifluoromethyl)phenyl)(3-(trifluoromethyl)pyridin-2-yl)methyl)cyclohexanecarboxamide], which IC50 is on record?
Answer: The IC50 was 1030 nM.

Question: How did the IC50 turn out when `Cc1ccnn1CC(=O)N[C@@H](c1ccc(C(F)(F)F)cc1)c1ncccc1C(F)(F)F` [Example 153, (S)-2-(5-methyl-1H-pyrazol-1-yl)-N-((4-(trifluoromethyl)phenyl)(3-(trifluoromethyl)pyridin-2-yl)methyl)acetamide] was run?
Answer: Its IC50 is 373 nM.

Question: How did the IC50 turn out when `COn1cc(C(=O)N[C@@H](c2ccc(C(F)(F)F)cc2)c2ncccc2F)ccc1=O` [Example 369, (S)-N-((3-fluoropyridin-2-yl)(4-(trifluoromethyl)phenyl)methyl)-1-methoxy-6-oxo-1,6-dihydropyridine-3-carboxamide] was run?
Answer: The IC50 was 3710 nM.

Question: How did the IC50 turn out when `O=C(N[C@@H](c1ccc(C(F)(F)F)cc1)c1ncccc1C(F)(F)F)c1ccc2ncsc2c1` [Example 239, (S)-N-((4-(trifluoromethyl)phenyl)(3-(trifluoromethyl)pyridin-2-yl)methyl)benzo[d]thiazole-6-carboxamide] was run?
Answer: The IC50 was 16 nM.

Question: `O=C(N[C@@H](c1ccc(C(F)(F)F)cc1)c1ncccc1F)c1ccc(=O)n(Cc2ccccc2)c1` [Example 371, (S)-1-benzyl-N-((3-fluoropyridin-2-yl)(4-(trifluoromethyl)phenyl)methyl)-6-oxo-1,6-dihydropyridine-3-carboxamide] was tested. Which IC50 did it give?
Answer: Its IC50 is 190 nM.

Question: How did the IC50 turn out when `O=C(N[C@@H](c1cccc(Cl)c1)c1ncccc1C(F)(F)F)c1ccc2cccnc2c1` [Example 13, (S)-N-((3-chlorophenyl)(3-(trifluoromethyl)pyridin-2-yl)methyl)quinoline-7-carboxamide] was run?
Answer: Its IC50 is 83.3 nM.

Question: Which IC50 does the source give for `COc1ccccc1C(=O)N[C@@H](c1ccc(C(F)(F)F)cc1)c1ncccc1F` [Example 169, (S)-N-((3-fluoropyridin-2-yl)(4-(trifluoromethyl)phenyl)methyl)-2-methoxybenzamide] here?
Answer: The IC50 was 10.4 nM.

Question: How did the IC50 turn out when `O=C(N[C@@H](c1ccc(OC(F)(F)F)c(F)c1)c1ncccc1F)c1c[nH]c(=O)c(Cl)c1` [Example 401, (S)-5-chloro-N-((3-fluoro-4-(trifluoromethoxy)phenyl)(3-fluoropyridin-2-yl)methyl)-6-oxo-1,6-dihydropyridine-3-carboxamide] was run?
Answer: The IC50 was 12.8 nM.

Question: `N#Cc1cccnc1[C@@H](NC(=O)c1ccc2cccnc2c1)c1ccc(C(F)(F)F)cc1` [Example 278, (S)—N-((3-Cyanopyridin-2-yl)(4-(trifluoromethyl)phenyl)-methyl)quinoline-7-carboxamide] was tested. Which IC50 did it give?
Answer: The IC50 was 317 nM.

Question: `COc1cc(C(=O)N[C@@H](c2ccc(C(F)(F)F)cc2)c2ncccc2C(F)(F)F)ccn1` [Example 34, (S)-2-methoxy-N-((4-(trifluoromethyl)phenyl)(3-(trifluoromethyl)pyridin-2-yl)methyl)isonicotinamide] was tested. Which IC50 did it give?
Answer: Its IC50 is 32.2 nM.

Question: How did the IC50 turn out when `O=C(N[C@@H](c1ccc(C(F)(F)F)cc1)c1ncccc1F)c1ccc2[nH]cnc2c1` [Example 392, (S)-N-((3-fluoropyridin-2-yl)(4-(trifluoromethyl)phenyl)methyl)-1H-benzo[d]imidazole-5-carboxamide] was run?
Answer: The IC50 was 7.6 nM.

Question: `O=C(N[C@@H](c1cnc2c(Cl)cccc2c1)c1ncccc1C(F)(F)F)c1ccc2cccnc2c1` [Example 7, (S)-N-((8-chloroquinolin-3-yl)(3-(trifluoromethyl)pyridin-2-yl)methyl)quinoline-7-carboxamide] was tested. Which IC50 did it give?
Answer: Its IC50 is 75.8 nM.

Question: For `COc1ccc([C@H](NC(=O)c2ccc(=O)[nH]c2)c2ncccc2F)cc1` [Example 342, (S)-N-((3-fluoropyridin-2-yl)(4-methoxyphenyl)methyl)-6-oxo-1,6-dihydropyridine-3-carboxamide], which IC50 is on record?
Answer: The IC50 was 255 nM.
